From PubChem BioAssay (NCI)
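Test compounds were applied to cells in 96-well plates for 48 hours at 5 doses. Here, GI50 denotes the concentration required for 50% inhibition of growth. TGI: total growth inhibition.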

Key:
Test in all cases: NCI-60 cell line screen, 48 h
[1] = system: MDA-MB-231 breast
[2] = system: NCI-H226 lung
[3] = system: COLO 205 colon
[4] = system: OVCAR-8 ovarian
[5] = system: TK-10 renal
[6] = system: UO-31 renal
[7] = system: RPMI-8226 leukemia
[8] = system: SK-MEL-5 melanoma
[9] = system: U251 CNS
[10] = system: 786-0 renal
[11] = system: OVCAR-3 ovarian
[12] = system: UACC-257 melanoma
[13] = system: KM12 colon
[14] = system: ACHN renal
[15] = system: HS 578T breast
[16] = system: SF-295 CNS
[17] = system: SN12C renal
[18] = system: PC-3 prostate
[19] = system: OVCAR-5 ovarian
[20] = system: A498 renal
[21] = system: HCT-15 colon
[22] = system: K-562 leukemia
[23] = system: CCRF-CEM leukemia
[24] = system: T-47D breast
[25] = system: SF-268 CNS
[26] = system: SNB-19 CNS
[27] = system: MDA-MB-435
[28] = system: SW-620 colon
[29] = system: SF-539 CNS
[30] = system: OVCAR-4 ovarian
[31] = system: NCI/ADR-RES ovarian
[32] = system: MOLT-4 leukemia
[33] = system: HT29 colon
[34] = system: HOP-62 NSCLC
[35] = system: SK-MEL-28 melanoma
[36] = system: SK-OV-3 ovarian
[37] = system: SNB-75 CNS
[38] = system: HOP-92 NSCLC
[39] = system: MCF7 breast
[40] = system: HCC-2998 colon
[41] = system: UACC-62 melanoma
[42] = system: NCI-H460 lung
[43] = system: M14 melanoma
[44] = system: LOX IMVI melanoma
[45] = system: EKVX NSCLC
[46] = system: A549 NSCLC
[47] = system: DU-145 prostate
[48] = system: BT-549 breast
[49] = system: IGROV1 ovarian
[50] = system: RXF 393 renal
[51] = system: NCI-H522 lung
[52] = system: MALME-3M melanoma
[53] = system: SK-MEL-2 melanoma
[54] = system: NCI-H23 lung
[55] = system: HL-60(TB) leukemia
[56] = system: CAKI-1 renal

For COC(=O)c1cc2c3ccccc3n3c(=O)c4cc5ccc(N(S(=O)(=O)c6ccc(C)cc6)S(=O)(=O)c6ccc(C)cc6)cc5nc4c(n1)c23, the GI50 [1] was 21.4 µM, the TGI [1] was greater than 100 µM and the GI50 [2] was 33.8 µM. It also gave a TGI [2] greater than 100 µM, a GI50 [3] greater than 100 µM and a TGI [3] greater than 100 µM. It also gave a GI50 [4] greater than 100 µM, a TGI [4] greater than 100 µM and a GI50 [5] of 19.4 µM. The TGI [5] was 44 µM, the GI50 [6] was greater than 100 µM and the TGI [6] was greater than 100 µM. It also gave a GI50 [7] of 43.7 µM, a TGI [7] greater than 100 µM and a GI50 [8] greater than 100 µM. It also gave a TGI [8] greater than 100 µM, a GI50 [9] of 10.1 µM and a TGI [9] of 45.2 µM. For the same compound, the GI50 [10] was 13.6 µM, the TGI [10] was 43.9 µM and the GI50 [11] was greater than 100 µM. For the same compound, the TGI [11] was greater than 100 µM, the GI50 [12] was greater than 100 µM and the TGI [12] was greater than 100 µM. It also gave a GI50 [13] greater than 100 µM, a TGI [13] greater than 100 µM and a GI50 [14] of 17.2 µM. The TGI [14] was 82.6 µM, the GI50 [15] was 29.3 µM and the TGI [15] was greater than 100 µM. The GI50 [16] was 20.5 µM, the TGI [16] was greater than 100 µM and the GI50 [17] was greater than 100 µM. It also gave a TGI [17] greater than 100 µM, a GI50 [18] greater than 100 µM and a TGI [18] greater than 100 µM. It also gave a GI50 [19] greater than 100 µM, a TGI [19] greater than 100 µM and a GI50 [20] of 34.8 µM. It also gave a TGI [20] of 70.2 µM, a GI50 [21] greater than 100 µM and a TGI [21] greater than 100 µM. It also gave a GI50 [22] of 39.4 µM, a TGI [22] greater than 100 µM and a GI50 [23] of 19.2 µM. For the same compound, the TGI [23] was 44.9 µM, the GI50 [24] was greater than 100 µM and the TGI [24] was greater than 100 µM. It also gave a GI50 [25] of 39.2 µM, a TGI [25] greater than 100 µM and a GI50 [26] of 26.6 µM. For the same compound, the TGI [26] was 78.3 µM, the GI50 [27] was greater than 100 µM and the TGI [27] was greater than 100 µM. It also gave a GI50 [28] greater than 100 µM, a TGI [28] greater than 100 µM and a GI50 [29] of 25.4 µM. It also gave a TGI [29] greater than 100 µM, a GI50 [30] greater than 100 µM and a TGI [30] greater than 100 µM. For the same compound, the GI50 [31] was greater than 100 µM, the TGI [31] was greater than 100 µM and the GI50 [32] was 28.6 µM. The TGI [32] was 64.5 µM, the GI50 [33] was greater than 100 µM and the TGI [33] was greater than 100 µM. The GI50 [34] was 16.1 µM, the TGI [34] was 45 µM and the GI50 [35] was greater than 100 µM. The TGI [35] was greater than 100 µM, the GI50 [36] was 26.2 µM and the TGI [36] was greater than 100 µM. For the same compound, the GI50 [37] was 44.5 µM, the TGI [37] was greater than 100 µM and the GI50 [38] was 12.4 µM. It also gave a TGI [38] of 34.3 µM, a GI50 [39] greater than 100 µM and a TGI [39] greater than 100 µM. For the same compound, the GI50 [40] was greater than 100 µM, the TGI [40] was greater than 100 µM and the GI50 [41] was 29.7 µM. It also gave a TGI [41] greater than 100 µM, a GI50 [42] greater than 100 µM and a TGI [42] greater than 100 µM. It also gave a GI50 [43] of 54.4 µM, a TGI [43] greater than 100 µM and a GI50 [44] of 48.5 µM. For the same compound, the TGI [44] was greater than 100 µM, the GI50 [45] was 53.6 µM and the TGI [45] was greater than 100 µM. For the same compound, the GI50 [46] was greater than 100 µM, the TGI [46] was greater than 100 µM and the GI50 [47] was greater than 100 µM. The TGI [47] was greater than 100 µM, the GI50 [48] was 35.7 µM and the TGI [48] was greater than 100 µM. The GI50 [49] was 43.7 µM, the TGI [49] was greater than 100 µM and the GI50 [50] was 13.1 µM. For the same compound, the TGI [50] was 37.8 µM, the GI50 [51] was 83.7 µM and the TGI [51] was greater than 100 µM. For the same compound, the GI50 [52] was 69.7 µM, the TGI [52] was greater than 100 µM and the GI50 [53] was 25.9 µM. The TGI [53] was greater than 100 µM, the GI50 [54] was 36.6 µM and the TGI [54] was greater than 100 µM. The GI50 [55] was greater than 100 µM, the TGI [55] was greater than 100 µM and the GI50 [56] was greater than 100 µM. It also gave a TGI [56] greater than 100 µM.
